We go through 53 molecules from US20090134028A1, “Method of Estimating Effect of Test Chemical on Living Organisms” (Chemicals Evaluation and Research Institute, priority 2005, published 2009).

Where two headings read alike, the source gives them in different places.

For data set [1] the following is noted: cited from earlier work.
Data set [2] is described as follows: Prediction of liver cell hypertrophy using SVM from post-translational modification data. Also noted: species or system rat.
Where [3] appears, read: SVM prediction of liver cell hypertrophy, training set, top-ranked 20 sets of post-translational modification data.
[4] abbreviates: known carcinogenicity of chemical, Tables 1 to 3.
Setting [5] is: known carcinogenicity of chemical, Tables 8 to 11.

As for `CCSCCC(N)C(=O)O` (racemic) [D,L-ethionin], the Carcinogenicity result in data set [1] (in vivo) is “+”.
Regarding `CC(C)[C@@H]1CC[C@@H](C)C[C@H]1O` (racemic) [DL-menthol], in the data set with liver cell (rat, in vivo), the “Finding of hepatocyte hypertrpy” value is given as “+” and the “pathology of liver cell hypertrophy in the liver” value (“pathology” below) is reported as “pathology of liver cell hypertrophy was seen”. In addition, the Prediction result in data set [2] is reported as “+1 CORRECT”. Further, the Carcinogenicity result in data set [1] (in vivo) is “−”.
On to `Clc1ccc(Cl)cc1` [1,4-Dichlorobenzene], for which, in the data set on liver cell (rat, in vivo), the “Finding of hepatocyte hypertrpy” value is “+” and the “pathology” value is “pathology of liver cell hypertrophy was seen”. The Prediction result in data set [2] is “+1 CORRECT”. Further, the Carcinogenicity entry in data set [1] (in vivo) is on record as “+”.
As to `C1COCCO1` [1,4-Dioxane], in the data set on liver cell (rat, in vivo), the “Finding of hepatocyte hypertrpy” value is “−” and the “pathology” value was “no pathology of liver cell hypertrophy was seen”. Further, the Prediction result in data set [2] was −1 CORRECT.
Regarding `CC(O)CCl` (centres unmarked) [1-Chloro-2-propanol], the Carcinogenicity result in data set [1] (in vivo) is on record as “−”.
Regarding `O=[N+]([O-])c1cccc2ccccc12` [1-Nitronaphthalene], the Carcinogenicity result in data set [1] (in vivo) was “−”.
For `Cc1ccc(N)cc1N` [2,4-Diaminotoluene], in the data set on liver cell (rat, in vivo), the “Finding of hepatocyte hypertrpy” value was “−” and the “pathology” value is “no pathology of liver cell hypertrophy was seen”. In addition, the Prediction result in data set [2] was −1 CORRECT. For the same molecule, in data set [1] (in vivo), the Carcinogenicity entry was “+”.
For the molecule `Cc1cc(N)ccc1N.O=S(=O)(O)O` [2,5-Toluenediamine sulfate], the Carcinogenicity result in data set [1] (in vivo) is listed as “−”.
As to `Cc1c(N)cccc1N` [2,6-Diaminotoluene], in the data set with liver cell (rat, in vivo), the “Finding of hepatocyte hypertrpy” value is “−” and the “pathology” value is “no pathology of liver cell hypertrophy was seen”. The Prediction result in data set [2] (setting [3]) is given as −1 CORRECT.
In the case of `Cl.ClCc1ccccn1` [2-(Chloromethyl)pyridine hydrochloride], in the data set on liver cell (rat, in vivo), the “Finding of hepatocyte hypertrpy” value is “−” and the “pathology” value is recorded as “no pathology of liver cell hypertrophy was seen”. Also, in data set [2], the Prediction result is recorded as −1 CORRECT. Also, the Carcinogenicity entry in data set [1] (setting [4]) is on record as “−”. For the same molecule, the Carcinogenicity result in data set [1] (setting [5]) was “−”.
As for `Cn1c(N)nc2ncc(-c3ccccc3)cc21` [2-Amino-1-methyl-6-phenylimidazo[4,5-b]-pyridine], the Carcinogenicity result in data set [1] (in vivo) is given as “+”.
Consider `Cc1cnc2ccc3c(nc(N)n3C)c2n1` [2-Amino-3,8-dimethylimidazo[4,5-f]-quinoxaline], for which, in data set [1] (in vivo), the Carcinogenicity entry is listed as “+”.
As to `Nc1ccc(N)c(Cl)c1.O=S(=O)(O)O` [2-Chloro-p-phenylenediamine sulfate], the Carcinogenicity result in data set [1] (in vivo) is on record as “−”.
For the molecule `CC(C)[N+](=O)[O-]` [2-Nitropropane], in the data set with liver cell (rat, in vivo), the “Finding of hepatocyte hypertrpy” value was “−” and the “pathology” value was “no pathology of liver cell hypertrophy was seen”. Besides, the Prediction result in data set [2] is on record as −1 CORRECT.
`Cc1ccc(N)cc1Cl` [3-Chloro-p-toluidine]: the Carcinogenicity entry in data set [1] (in vivo) is on record as “−”.
As for `Cc1ccc2cc3c(ccc4ccccc43)c3c2c1CC3` [3-Methylcholantrene], the Carcinogenicity result in data set [1] (in vivo) was “+”.
In the case of `CC(=O)Nc1ccc(C(=O)CCl)cc1` [4-(Chloroacetyl)acetanilide], the Carcinogenicity entry in data set [1] (in vivo) was “−”.
With `CN(C)c1ccc(N=Nc2ccccc2)cc1` [4-Dimethylaminoaxobenzene], the Carcinogenicity entry in data set [1] (in vivo) was “+”.
`Nc1ccc([N+](=O)[O-])cc1N` [4-Nitro-o-phenylenediamine]: in the data set on liver cell (rat, in vivo), the “Finding of hepatocyte hypertrpy” value is recorded as “−” and the “pathology” value was “no pathology of liver cell hypertrophy was seen”. In data set [2], the Prediction result is recorded as −1 CORRECT. The Carcinogenicity result in data set [1] (in vivo) is “−”.
For the molecule `Nc1cc([N+](=O)[O-])ccc1C(=O)O` [4-Nitroanthranylic acid], the Carcinogenicity result in data set [1] (in vivo) is “−”.
As to `Cc1c2ccccc2c(C)c2c1ccc1ccccc12` [7,12-Dimethylbenzanthracene], the Carcinogenicity entry in data set [1] (in vivo) is reported as “+”.
As to `Oc1cccc2cccnc12` [8-Hydrxyquinoline], in the data set with liver cell (rat, in vivo), the “Finding of hepatocyte hypertrpy” value was “−” and the “pathology” value is “no pathology of liver cell hypertrophy was seen”. In addition, in data set [2], the Prediction result was −1 CORRECT. For the same molecule, the Carcinogenicity result in data set [1] (in vivo) is listed as “−”.
For `CC(N)=O` [Acetamide], the Carcinogenicity result in data set [1] (in vivo) is on record as “+”.
On to `ClC1=C(Cl)C2(Cl)C3C4C=CC(C4)C3C1(Cl)C2(Cl)Cl` (centres unmarked) [Aldrin], for which, in the data set on liver cell (rat, in vivo), the “Finding of hepatocyte hypertrpy” value is reported as “−” and the “pathology” value is recorded as “no pathology of liver cell hypertrophy was seen”. For the same molecule, the Prediction result in data set [2] is recorded as −1 CORRECT. In addition, the Carcinogenicity result in data set [1] (in vivo) is “+”.
With `CC(=O)Oc1ccccc1C(=O)O` [Aspirin], the Carcinogenicity entry in data set [1] (setting [4]) and in data set [1] (setting [5]) was “−” in each case.
For the molecule `c1ccc2cc3c(ccc4ccccc43)cc2c1` [Benz(a)anthracene], in data set [1] (in vivo), the Carcinogenicity entry is “+”.
Take `O=C(c1ccccc1)C(O)c1ccccc1` (centres unmarked) [Benzoin]: the Carcinogenicity result in data set [1] (in vivo) was “−”.
In the case of `COc1ccc(O)c(C(C)(C)C)c1` [Butylated hydroxyanisole], in the data set with liver cell (rat, in vivo), the “Finding of hepatocyte hypertrpy” value is given as “−” and the “pathology” value is “no pathology of liver cell hypertrophy was seen”. In data set [2], the Prediction result is recorded as −1 CORRECT. In data set [1] (in vivo), the Carcinogenicity entry was “+”.
Turning to `O=C1CCCCCN1` [Caprolactam], the Carcinogenicity entry in data set [1] (setting [4]) and in data set [1] (setting [5]) was “−” each time.
As for `ClC(Cl)(Cl)Cl` [Carbon tetrachloride], in the data set with liver cell (rat, in vivo), the “Finding of hepatocyte hypertrpy” value is listed as “−” and the “pathology” value is given as “no pathology of liver cell hypertrophy was seen”. Also, the Prediction result in data set [2] was −1 CORRECT. In data set [1] (in vivo), the Carcinogenicity result is on record as “+”.
Take `O=C(O)C1C(C(=O)O)C2(Cl)C(Cl)=C(Cl)C1(Cl)C2(Cl)Cl` (centres unmarked) [Chlorendic acid]: in data set [1] (in vivo), the Carcinogenicity result is on record as “+”.
Take `ClC(Cl)Cl` [Chloroform]: in data set [1] (in vivo), the Carcinogenicity entry was “+”.
On to `CCOC(=O)C(C)(C)Oc1ccc(Cl)cc1` [Clofibrate], for which, in the data set on liver cell (rat, in vivo), the “Finding of hepatocyte hypertrpy” value was “+” and the “pathology” value is recorded as “pathology of liver cell hypertrophy was seen”. Also, in data set [1] (setting [4]), the Carcinogenicity result was “+”. Moreover, the Carcinogenicity result in data set [1] (setting [5]) is listed as “+”.
For the molecule `OC[C@@H](O)[C@@H](O)[C@H](O)[C@H](O)CO` [D-mannitol], in the data set with liver cell (rat, in vivo), the “Finding of hepatocyte hypertrpy” value was “−” and the “pathology” value is “no pathology of liver cell hypertrophy was seen”. Moreover, the Prediction result in data set [2] (setting [3]) is listed as −1 CORRECT. Further, the Carcinogenicity entry in data set [1] (setting [4]) is reported as “−”. The Carcinogenicity entry in data set [1] (setting [5]) is given as “−”.
Regarding `CCCCC(CC)COC(=O)CCCCC(=O)OCC(CC)CCCC` (centres unmarked) [Di(2-ethylhexyl)adipate], in the data set on liver cell (rat, in vivo), the “Finding of hepatocyte hypertrpy” value was “−” and the “pathology” value is recorded as “no pathology of liver cell hypertrophy was seen”. For the same molecule, the Prediction result in data set [2] is 1.
As to `CCCCC(CC)COC(=O)c1ccccc1C(=O)OCC(CC)CCCC` (centres unmarked) [Di(2-ethylhexyl)phthalate], in the data set with liver cell (rat, in vivo), the “Finding of hepatocyte hypertrpy” value is “+” and the “pathology” value is on record as “pathology of liver cell hypertrophy was seen”. In data set [2] (setting [3]), the Prediction result was −1 (−1 and 1 indicates the incorrectly predicted compounds). The Carcinogenicity result in data set [1] (in vivo) is “+”.
In the case of `CC/C(=C(/CC)c1ccc(O)cc1)c1ccc(O)cc1` [Diethylstilbestrol], the Carcinogenicity result in data set [1] (setting [4]) and in data set [1] (setting [5]) was “+” in each case.
For the molecule `C#C[C@]1(O)CC[C@H]2[C@@H]3CCc4cc(O)ccc4[C@H]3CC[C@@]21C` [Ethinylestradiol], the “Finding of hepatocyte hypertrpy” value with liver cell (rat, in vivo) was “−”. In addition, the “pathology” value with liver cell (rat, in vivo) is recorded as “no pathology of liver cell hypertrophy was seen”. Also, the Carcinogenicity entry in data set [1] (setting [4]) and in data set [1] (setting [5]) was “+” each time.
For `O=CCCCC=O` [Glutaraldehyde], the Carcinogenicity entry in data set [1] (setting [4]) and in data set [1] (setting [5]) was “−” in each case.
With `Clc1c(Cl)c(Cl)c(Cl)c(Cl)c1Cl` [Hexachlorobenzene], the “Finding of hepatocyte hypertrpy” value in the data set on liver cell (rat, in vivo) is listed as “+”.
For the molecule `O=C1O[C@H]([C@@H](O)CO)C(O)=C1O` [L-ascorbic acid], the “Finding of hepatocyte hypertrpy” value in the data set with liver cell (rat, in vivo) was “−”. Besides, the Prediction result in data set [2] (setting [3]) is −1 CORRECT.
As to `COC(N)=O` [Methyl carbamate], in the data set on liver cell (after 28 days repeated administration), the “pathology” value is “no pathology of liver cell hypertrophy was seen”. Further, in the data set with liver cell (rat liver after 28 days repeated administration), the “Finding of hepatocyte hypertrpy” value was “−”. Besides, the Prediction result in data set [2] (setting [3]) was −1 CORRECT.
With `CCN(N=O)C(N)=O` [N-ethy-N-nitrosourea], in data set [1] (in vivo), the Carcinogenicity entry is reported as “+”.
Turning to `CN(C)N=O` [N-nitrsodimethylamine], the Carcinogenicity result in data set [1] (in vivo) is recorded as “+”.
`ClC(Cl)C(Cl)(Cl)Cl` [Pentachloroethane]: the Carcinogenicity result in data set [1] (in vivo) was “+”.
Turning to `CCC1(c2ccccc2)C(=O)NC(=O)NC1=O` [Phenobarbital], in the data set on liver cell (rat, in vivo), the “Finding of hepatocyte hypertrpy” value was “+” and the “pathology” value is recorded as “pathology of liver cell hypertrophy was seen”.
For `O=C1NC(=O)C(c2ccccc2)(c2ccccc2)N1` [Phenytoin sodium], the Carcinogenicity result in data set [1] (setting [4]) and in data set [1] (setting [5]) was “+” in each case.
With `NC(=O)c1ccccc1C(N)=O` [Phthalamide], the Carcinogenicity result in data set [1] (setting [4]) and in data set [1] (setting [5]) was “−” throughout.
For the molecule `ClC(Cl)=C(Cl)Cl` [Tetrachloroethylene], the Carcinogenicity entry in data set [1] (in vivo) was “+”.
On to `CC(=N)S` [Thioacetamide], for which the Carcinogenicity entry in data set [1] (in vivo) is recorded as “+”.
Turning to `O=C(O)C(Cl)(Cl)Cl` [Trichloroacetic acid], in data set [1] (in vivo), the Carcinogenicity entry is listed as “+”.
With `CCOC(N)=O` [Urethane], the Carcinogenicity entry in data set [1] (setting [4]) and in data set [1] (setting [5]) was “+” each time.
Take `Cl.Cl.Nc1ccc(N)cc1` [p-Phenylenediamine dihydrochloride]: the Carcinogenicity result in data set [1] (in vivo) was “−”.
